Results from PubChem BioAssay (NCI).
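GI50: concentration for 50% inhibition of growth. The concentration for full growth arrest is given as TGI.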

Experiments:
Test in all cases: NCI anticancer screen, dose series, 384-well format
BT-549 breast = system: BT-549 breast
IGROV1 ovarian = system: IGROV1 ovarian
M14 melanoma = system: M14 melanoma
SK-MEL-28 melanoma = system: SK-MEL-28 melanoma
OVCAR-3 ovarian = system: OVCAR-3 ovarian
LOX IMVI melanoma = system: LOX IMVI melanoma
OVCAR-5 ovarian = system: OVCAR-5 ovarian
SK-OV-3 ovarian = system: SK-OV-3 ovarian
SW-620 colon = system: SW-620 colon
NCI/ADR-RES ovarian = system: NCI/ADR-RES ovarian
MALME-3M melanoma = system: MALME-3M melanoma
HCT-15 colon = system: HCT-15 colon
786-0 renal = system: 786-0 renal
UO-31 renal = system: UO-31 renal
MCF7 breast = system: MCF7 breast
EKVX NSCLC = system: EKVX NSCLC
CAKI-1 renal = system: CAKI-1 renal
HS 578T breast = system: HS 578T breast
K-562 leukemia = system: K-562 leukemia
CCRF-CEM leukemia = system: CCRF-CEM leukemia
SNB-75 CNS = system: SNB-75 CNS
HCC-2998 colon = system: HCC-2998 colon
HT29 colon = system: HT29 colon
U251 glioblastoma = system: U251 glioblastoma
COLO 205 colon = system: COLO 205 colon
NCI-H23 lung = system: NCI-H23 lung
NCI-H460 NSCLC = system: NCI-H460 NSCLC
OVCAR-4 ovarian = system: OVCAR-4 ovarian
RXF 393 renal = system: RXF 393 renal
HL-60(TB) leukemia = system: HL-60(TB) leukemia
DU-145 prostate = system: DU-145 prostate
KM12 colon = system: KM12 colon
TK-10 renal = system: TK-10 renal
T-47D breast = system: T-47D breast
HOP-62 NSCLC = system: HOP-62 NSCLC
SNB-19 CNS = system: SNB-19 CNS
HCT-116 colon = system: HCT-116 colon
SK-MEL-2 melanoma = system: SK-MEL-2 melanoma
HOP-92 NSCLC = system: HOP-92 NSCLC
NCI-H522 lung = system: NCI-H522 lung
UACC-257 melanoma = system: UACC-257 melanoma
SN12C renal = system: SN12C renal
RPMI-8226 leukemia = system: RPMI-8226 leukemia
SF-268 CNS = system: SF-268 CNS
NCI-H226 lung = system: NCI-H226 lung
UACC-62 melanoma = system: UACC-62 melanoma
PC-3 prostate = system: PC-3 prostate

O=C(c1ccccc1O)c1[nH]c(Cl)c(Cl)c1-n1c(C(=O)c2ccccc2O)cc(Cl)c1Cl
GI50 (BT-549 breast): 631 nM | TGI (BT-549 breast): 1620 nM | GI50 (IGROV1 ovarian): 521 nM | TGI (IGROV1 ovarian): 8560 nM | GI50 (M14 melanoma): 682 nM | TGI (M14 melanoma): 2380 nM | GI50 (SK-MEL-28 melanoma): 367 nM | TGI (SK-MEL-28 melanoma): 1430 nM | GI50 (OVCAR-3 ovarian): 353 nM | TGI (OVCAR-3 ovarian): 1500 nM | GI50 (LOX IMVI melanoma): 833 nM | TGI (LOX IMVI melanoma): 2330 nM | GI50 (OVCAR-5 ovarian): 1440 nM | TGI (OVCAR-5 ovarian): 4710 nM | GI50 (SK-OV-3 ovarian): 641 nM | TGI (SK-OV-3 ovarian): 2210 nM | GI50 (SW-620 colon): 367 nM | TGI (SW-620 colon): 1540 nM | GI50 (NCI/ADR-RES ovarian): 384 nM | TGI (NCI/ADR-RES ovarian): 1270 nM | GI50 (MALME-3M melanoma): 670 nM | TGI (MALME-3M melanoma): 2170 nM | GI50 (HCT-15 colon): 277 nM | TGI (HCT-15 colon): 1040 nM | GI50 ([…]-0 renal): 619 nM | TGI (786-0 renal): 1920 nM | GI50 (UO-31 renal): 493 nM | TGI (UO-31 renal): 1820 nM | GI50 (MCF7 breast): 263 nM | TGI (MCF7 breast): 1230 nM | GI50 (EKVX NSCLC): 230 nM | TGI (EKVX NSCLC): 842 nM | GI50 (CAKI-1 renal): 411 nM | TGI (CAKI-1 renal): 2190 nM | GI50 (HS 578T breast): 157 nM | TGI (HS 578T breast): 440 nM | GI50 (K-562 leukemia): 238 nM | TGI (K-562 leukemia): 3070 nM | GI50 (CCRF-CEM leukemia): 240 nM | TGI (CCRF-CEM leukemia): 705 nM | GI50 (SNB-75 CNS): 487 nM | TGI (SNB-75 CNS): 2440 nM | GI50 (HCC-2998 colon): 537 nM | TGI (HCC-2998 colon): 1950 nM | GI50 (HT29 colon): 518 nM | TGI (HT29 colon): 4330 nM | GI50 (U251 glioblastoma): 331 nM | TGI (U251 glioblastoma): 1130 nM | GI50 (COLO 205 colon): 747 nM | TGI (COLO 205 colon): 3800 nM | GI50 (NCI-H23 lung): 220 nM | TGI (NCI-H23 lung): 610 nM | GI50 (NCI-H460 NSCLC): 288 nM | TGI (NCI-H460 NSCLC): 938 nM | GI50 (OVCAR-4 ovarian): 936 nM | TGI (OVCAR-4 ovarian): 4790 nM | GI50 (RXF 393 renal): 600 nM | TGI (RXF 393 renal): 2120 nM | GI50 (HL-60(TB) leukemia): 257 nM | TGI (HL-60(TB) leukemia): 572 nM | GI50 (DU-145 prostate): 681 nM | TGI (DU-145 prostate): 8400 nM | GI50 (KM12 colon): 537 nM | TGI (KM12 colon): 1930 nM | GI50 (TK-10 renal): 386 nM | TGI (TK-10 renal): 4500 nM | GI50 (T-47D breast): 218 nM | TGI (T-47D breast): 883 nM | GI50 (HOP-62 NSCLC): 552 nM | TGI (HOP-62 NSCLC): 1590 nM | GI50 (SNB-19 CNS): 373 nM | TGI (SNB-19 CNS): 3960 nM | GI50 (HCT-116 colon): 248 nM | TGI (HCT-116 colon): 930 nM | GI50 (SK-MEL-2 melanoma): 333 nM | TGI (SK-MEL-2 melanoma): 922 nM | GI50 (HOP-92 NSCLC): 458 nM | TGI (HOP-92 NSCLC): 1160 nM | GI50 (NCI-H522 lung): 174 nM | TGI (NCI-H522 lung): 536 nM | GI50 (UACC-257 melanoma): 461 nM | TGI (UACC-257 melanoma): 1650 nM | GI50 (SN12C renal): 209 nM | TGI (SN12C renal): 746 nM | GI50 (RPMI-8226 leukemia): 196 nM | TGI (RPMI-8226 leukemia): 388 nM | GI50 (SF-268 CNS): 116 nM | TGI (SF-268 CNS): 871 nM | GI50 (NCI-H226 lung): 634 nM | TGI (NCI-H226 lung): 1890 nM | GI50 (UACC-62 melanoma): 599 nM | TGI (UACC-62 melanoma): 1860 nM | GI50 (PC-3 prostate): 292 nM | TGI (PC-3 prostate): 978 nM
